In paper PMC7725824, “Fused isoselenazolium salts suppress breast cancer cell growth by dramatic increase in pyruvate-dependent mitochondrial ROS production” (Scientific Reports, 2020):
Like-named read-outs stand apart in the source and are kept apart here.

Key:
[1] = Cytotoxicity assay (MTT), A7r5; assay type: cell-based, rat; details: rat, normal cell line, mean ± S.D., 3 experiments
Experimental: (§1) MCF-7 (human breast adenocarcinoma, estrogen-positive) and 4T1 (mouse carcinoma), as breast cancer cell lines, and H9C2 (rat cardiomyoblasts), NIH 3T3 (mouse fibroblasts), HEKa (primary human epidermal keratinocytes), MDCK (Madin-Darby Canine Kidney) cells, and A7r5 (rat vascular smooth muscle cells), as normal cell lines, were obtained from the American Type Culture Collection [ATCC] collection for use in the current study. All cell lines were cultured in Dulbecco's modified Eagle's medium (DMEM) containing 10% fetal bovine serum (FBS) and 4 mM L-glutamine at 37 °C and 5% CO2.
(§2) Cell viability was assessed by the addition of 3-(4,5-dimethylthiazol-2-yl)-2,5-diphenyltetrazolinium bromide (MTT). Briefly, cells were seeded (2–6 × 10^4 cells/ml) in 96-well plates and allowed to attach for 24 h. Solutions of test compounds were prepared and serially diluted to obtain the appropriate concentrations. The cells were treated with the test compounds at different concentrations (0.032–100 µM) and incubated for 48 h at 37 °C and 5% CO2. Then, the culture medium was removed, and medium containing 0.2 mg/ml MTT was added. After 3 h (37 °C, 5% CO2), the MTT-containing medium was removed, and 200 μl of dimethyl sulfoxide (DMSO) was immediately added to each sample. The absorbance was assessed at 540 nm using a Tecan multiplate reader Infinite 1000 (Austria). The half-maximal inhibitory concentration (IC50) of each compound was calculated using Graph Pad Prism 3.0.

[2] = Cytotoxicity assay (MTT), HEKa; assay type: cell-based, human; details: human, normal cell line, mean ± S.D., 3 experiments
Experimental: as §1, §2

MCF-7 cells [3] = test: Fluorometric measurement of NMN level; assay type: cell-based, human; details: 2 μM, 10 min, vs control
Experimental: For fluorometric measurements of NMN, a previously described method was used, with minor modifications. […] The cells were washed with PBS and then lysed by adding 200 μl of 1 M HClO4 to each well and incubating at 4 °C for 20 min. The cells were harvested by scraping and transferred to a tube. The extracts were neutralized with 100 μl of 2 M KOH for 5 min at room temperature and 50 μl of 0.1 M bicine (pH 7.4) was added. The samples were centrifuged at 14 000 × g for 10 min at 4 °C, and the supernatant was collected for further analysis. The protein concentration in each sample was determined using a Bio-Rad protein assay kit. […] The reaction was incubated for 2 min at 4 °C, after which 45 μl of 88% formic acid was added, and the samples were incubated for another 10 min at 37 °C on a shaker. The fluorescence was measured using a Tecan multiplate reader Infinite 1000 (Austria) with excitation at 382 nm and emission at […].

MCF-7 cells [4] = test: NAD+/NADH assay kit measurement; assay type: cell-based, human; details: 2 μM, 10 min
Experimental: The NAD^+/NADH ratio in the MCF-7 cells exposed to the test compounds (2 μM) for 10 min was measured using an NAD^+/NADH assay kit (Abcam, ab65348) according to the manufacturer's instructions.

MCF-7 = test: Cytotoxicity assay (MTT), MCF-7; assay type: cell-based, human; details: read-out: Cytotoxicity, IC50, MCF-7
Experimental: as §1, §2

[5] = Cytotoxicity assay (MTT), H9C2; assay type: cell-based, rat; details: rat, normal cell line, MTT, 48 h, mean ± S.D., 3 experiments
Experimental: as §1, §2

[6] = Cytotoxicity assay (MTT), 3T3; assay type: cell-based, mouse; details: mouse, normal cell line, mean ± S.D., 3 experiments
Experimental: as §1, §2

permeabilized 4T1 cells = test: High-resolution fluorespirometry (respiration and H2O2 flux); assay type: cell-based, mouse; details: for increase in H2O2/O ratio / increase in H2O2 production: pyruvate-dependent OXPHOS state
Experimental: High-resolution fluorespirometry was performed using an Oxygraph-2 k system (OROBOROS INSTRUMENTS, Austria). All experiments were performed at 37 °C in MiR05 medium (110 mM sucrose, 60 mM K-lactobionate, 0.5 mM EGTA, 3 mM MgCl2, 20 mM taurine, 10 mM KH2PO4, 20 mM HEPES, pH 7.1 at 30 °C, and 0.1% BSA essentially fatty acid free). The medium was reoxygenated when the oxygen concentration dropped to 80 µM. H2O2 flux was simultaneously measured with respirometry in the O2k-Fluorometer using the H2O2-sensitive probe Ampliflu Red (AmR) as described. The H2O2/O flux ratio [%] was calculated as the H2O2 flux/(0.5 O2 flux).
In permeabilized 4T1 cells, pyruvate + malate (5 and 2 mM) or glutamate + malate (10 and 2 mM) were used to determine complex I (CI)-linked LEAK (L) respiration. ADP was added to a concentration of 5 mM to determine the oxidative phosphorylation-dependent respiration (OXPHOS state). Succinate (10 mM, complex II (CII) substrate) was then added to reconstitute convergent CI&II-linked respiration. Rotenone (0.5 µM, an inhibitor of complex I) and antimycin A (2.5 µM, an inhibitor of complex III) were added to determine the CII-linked OXPHOS capacity and residual oxygen consumption (ROX), respectively. Compound 6 was added to permeabilized cells after the addition of the respective substrates in the OXPHOS state (titration experiment) or in the LEAK state. In addition, compounds 3, 6 and 7 were tested at 1 µM in the OXPHOS coupling protocol in the LEAK state. The OXPHOS coupling efficiency was calculated as: 1-Resp.rateLEAKstate/Resp.rateOXPHOSstate
The substrate-dependent flux control factor was calculated as: 1-Resp.ratebeforeadditionofrespectivesubstrate/Resp.rateafteradditionofrespectivesubstrate

[7] = Cytotoxicity assay (MTT), MDCK; assay type: cell-based, Canine; details: dog, normal cell line, mean ± S.D., 3 experiments
Experimental: as §1, §2

4T1 = test: Cytotoxicity assay (MTT), 4T1; assay type: cell-based, mouse; details: for IC50: read-out: Cytotoxicity, IC50, 4T1
Experimental: as §1, §2

A7r5 = test: Cytotoxicity assay (MTT), A7r5; assay type: cell-based, rat; details: normal cell line, 48 h, mean ± S.D., 3 experiments
Experimental: as §1, §2

HEKa = test: Cytotoxicity assay (MTT), HEKa; assay type: cell-based, human; details: normal cell line, 48 h, mean ± S.D., 3 experiments
Experimental: as §1, §2

H9C2 = test: Cytotoxicity assay (MTT), H9C2; assay type: cell-based, rat; details: for IC50: normal cell line, MTT, 48 h, mean ± S.D., 3 experiments
Experimental: as §1, §2

NIH 3T3 = test: Cytotoxicity assay (MTT), 3T3; assay type: cell-based, mouse; details: normal cell line, 48 h, mean ± S.D., 3 experiments
Experimental: as §1, §2

MDCK = test: Cytotoxicity assay (MTT), MDCK; assay type: cell-based, Canine; details: normal cell line, 48 h, mean ± S.D., 3 experiments
Experimental: as §1, §2

NAMPT = target: T1, NAMPT (Homo sapiens, UniProt P43490); test: NAMPT activity assay in lysates of treated cells; assay type: cell-based; details: MCF-7 cells, 2 µM, 4 h
T1 construct: endogenous in cells; host or cells: MCF-7
Experimental: MCF-7 cells (5 × 10^6 cells per well) were grown in a 6-well plate and then incubated with the test compounds (2 µM) for 4 h. The cells were harvested by scraping, washed with PBS and lysed with 50 mM Tris–HCl (pH 7.5), 150 mM NaCl, 1 mM DTT, 1 mM PMSF, 0.002 mg/ml leupeptin and pepstatin (2 × 10^6 cells in 100 µl buffer solution). After three freeze–thaw cycles at -80 °C, the cell extract was centrifuged at 15 000 × g for 30 min at 4 °C. The supernatant was collected, and the protein concentrations were determined using a Bio-Rad protein assay kit. The NAMPT enzyme reaction was performed as described previously. The enzymatic reaction mixture contained 50 mM Tris–HCl buffer (pH 7.5), 12 mM MgCl2, 2 mM DTT, 0.02% BSA, 2.5 mM ATP, 0.8 mM PRPP, and 50 μM nicotinamide. […] The concentrations of the NAMPT reaction product, nicotinamide mononucleotide (NMN), in the samples were determined using a described method. […] The fluorescence was measured using a Tecan multiplate reader Infinite 1000 (Austria) with excitation at 382 nm and emission at 445 nm. The NMN concentrations in the reaction mixtures were determined by comparison with NMN standards in the range of 0.16–20 μM. The NAMPT activity in the cell lysates is expressed as the concentration of NMN in μmol per mg protein per hour based on standard NMN readings.

[8] = breast cancer cell line, MTT, 48 h, mean ± S.D., 3 experiments
[9] = A7r5 cells (vascular smooth muscle cells)
[10] = Homo sapiens, MCF7, breast cancer cell line, MTT, 48 h, mean ± S.D., 3 experiments
[11] = titration, pyruvate + malate and glutamate + malate, OXPHOS
[12] = Mus musculus, 4T1, breast cancer cell line, MTT, 48 h, mean ± S.D., 3 experiments

T1 sequence (P43490 whole entry): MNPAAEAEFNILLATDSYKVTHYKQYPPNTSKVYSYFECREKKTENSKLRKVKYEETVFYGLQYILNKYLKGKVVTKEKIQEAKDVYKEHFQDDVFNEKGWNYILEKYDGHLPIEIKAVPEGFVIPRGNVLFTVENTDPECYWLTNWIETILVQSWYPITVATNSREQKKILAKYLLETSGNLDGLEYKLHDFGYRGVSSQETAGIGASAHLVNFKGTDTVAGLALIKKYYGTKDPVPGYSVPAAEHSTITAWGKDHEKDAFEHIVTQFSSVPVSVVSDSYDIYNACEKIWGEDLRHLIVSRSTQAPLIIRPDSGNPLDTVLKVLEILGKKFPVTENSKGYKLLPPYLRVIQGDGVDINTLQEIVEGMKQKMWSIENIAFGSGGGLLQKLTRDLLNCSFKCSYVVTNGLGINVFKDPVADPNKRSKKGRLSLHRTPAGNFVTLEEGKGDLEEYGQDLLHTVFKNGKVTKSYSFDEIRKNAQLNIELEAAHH

Molecule | decrease in NMN levels (MCF-7 cells [3]) | decrease in NAD+ level (MCF-7 cells [4]; vs control) | decrease in NADH level (MCF-7 cells [4]; vs control) | increase in H2O2/O ratio (permeabilized 4T1 cells; 1 µM) | increase in H2O2 production (permeabilized 4T1 cells; 1 µM) | IC50 (A7r5) | IC50 (HEKa) | IC50 (MCF-7; [8]) | IC50 (H9C2) | IC50 (NIH 3T3) | IC50 (MDCK) | IC50 (4T1; [8]) | IC50 at 48 h [1, 9] | IC50 (MCF-7; [10]) | IC50 at 48 h ([5]; H9C2 cells (cardiomyoblasts)) | IC50 at 48 h ([6]; NIH 3T3 cells (fibroblasts)) | IC50 at 48 h ([7]; MDCK cells) | IC50 (4T1; [12]) | other results
Cn1cc[n+]2[se]c(C3(O)CCCCC3)c(Br)c12 [Compound 7, 3-bromo-N-methyl-2-(1-hydroxycyclohexyl)[1,2]selenazolo[2,3-b]imidazolium bromide] | not | without affecting | induced a decrease | immediate significant increases | immediate significant increases |  |  |  |  |  |  |  |  |  |  |  |  |  | IC50 at 48 h [1]: 1.66 ± 0.25 µM; IC50 at 48 h [2]: 2.19 ± 0.09 µM; NAD+/NADH ratio higher than in untreated cells (MCF-7 cells [4]): 1.65 times; IC50 (MCF-7; Homo sapiens, MCF7, 48 h): 1.48 ± 0.02 µM; IC50 at 48 h [5]: 0.67 ± 0.02 µM; IC50 at 48 h [6]: 2.2 ± 0.3 µM; IC50 at 48 h [7]: 4.28 ± 0.34 µM; IC50 (4T1; Mus musculus, 4T1, 48 h): 0.94 ± 0.06 µM
O=[Se](O)O [Na2SeO3, Sodium selenite, reference compound] |  |  |  |  |  | 39.4 ± 8.2 µM | 13.3 ± 1.1 µM | 17.1 ± 2.4 µM | 1.5 ± 0.3 µM | 22.3 ± 3.6 µM | 6.3 ± 0.4 µM | 4.9 ± 0.6 µM |  |  |  |  |  |  | 
OC1(c2[se][n+]3ccccc3c2Br)CCCCC1.[Cl-] [Compound 3, 3-bromo-2-(1-hydroxycyclohexyl)-[1,2]selenazolo[2,3-a]pyridinium chloride] | 33% | 59% | 33% | immediate significant increases | immediate significant increases |  |  |  |  |  |  |  | 1.85 ± 0.22 µM | 0.5 ± 0.02 µM | 2.2 ± 0.1 µM | 0.39 ± 0.05 µM | 2.91 ± 0.13 µM | 0.044 ± 0.005 µM | IC50 at 48 h ([2]; HEKa cells (primary epidermal keratinocytes)): 2.21 ± 0.02 µM; reduction in NAMPT activity (NAMPT): slight decreases; decrease in NAD+/NADH ratio (MCF-7 cells [4]; vs control): 38%; OXPHOS coupling efficiency (permeabilized 4T1 cells; 1 µM): significant decrease; mitochondrial function in the CII-linked OXPHOS state (permeabilized 4T1 cells; titration): no significant changes; H2O2 production with complex I (NADH-linked) substrates (permeabilized 4T1 cells; [11]): increased; mitochondrial respiration rate with complex I (NADH-linked) substrates (permeabilized 4T1 cells; [11]): inhibited; selectivity towards tumor cell lines (4T1; comparing 4T1 to A7r5): > 42 fold
3-bromo-2-(2-hydroxy-2-methylethyl)-[1,2]selenazolo[2,3-a]pyridinium chloride [Compound 1] |  |  |  |  |  | 2.89 ± 0.42 µM | 2.31 ± 0.02 µM | 3.1 ± 0.03 µM | 1.8 ± 0.1 µM | 0.13 ± 0.02 µM | 3.26 ± 0.4 µM | 0.3 ± 0.03 µM |  |  |  |  |  |  | 
COc1cccc2c1C(=O)c1c(O)c3c(c(O)c1C2=O)C[C@@](O)(C(=O)CO)C[C@@H]3O[C@H]1C[C@H](N)[C@H](O)[C@H](C)O1 [Doxorubicin, reference compound] |  |  |  |  |  |  |  |  |  |  |  |  | 1.82 ± 0.35 µM | 1 ± 0.3 µM | 11 ± 1 µM | 0.75 ± 0.09 µM | 57 ± 6.1 µM | 0.16 ± 0.06 µM | IC50 values in tumor cells versus cardiomyocytes, fold lower (H9C2; tumor cells versus cardiomyocytes): 10–100 fold
